From publication PMC12040169 (PLOS Biology, 2025)

Test: in vitro
Conditions: human, hela cells, % viability

| Compound | viability at 28.5 h, 10 µM [%] |
| --- | --- |
| Nc1c(-c2cccc(C(F)(F)F)c2)cnc2cccnc12 [CBK081187] | 88.7 |
| COc1cc(-c2cnc3cccnc3c2N)cc(OC)c1OC [CBK081190] | 93.1 |
| CCCCc1ccc(-c2cc3ncccc3nc2N)cc1 [CBK081198] | 96.3 |
| Nc1nc2cccnc2cc1-c1cccc(C(F)(F)F)c1 [CBK081200] | 103 |
| Nc1nc2cccnc2cc1-c1ccc2c(c1)OCCCO2 [CBK081201] | 97.7 |
| COc1ccc(C(C)C)cc1-c1cnc2cccnc2c1N [CBK081211] | 105 |
| Nc1nc2cccnc2cc1-c1ccsc1 [CBK081214] | 85.8 |
| CCCCc1ccc(-c2nc(NC(=O)NCC)cc3cccnc23)cc1 [CBK081231] | 94.6 |
| CCNC(=O)Nc1nc2cccnc2cc1-c1ccc(OC)c(C)c1 [CBK081241] | 94.6 |
| CC(C)C(=O)Nc1cc2cccnc2c(-c2ccsc2)n1 [CBK081259] | 100 |
| CSc1ccc(-c2nc(NC(=O)C(C)C)cc3cccnc23)cc1 [CBK081262] | 100 |
| CC(C)(C)c1ccc(-c2cnc3nc(O)ccc3c2)cc1 [CBK081284] | 74.6 |
| Oc1ccc2cc(-c3cccc(C(F)(F)F)c3)cnc2n1 [CBK081285] | 59.5 |
| Oc1c(-c2cccc(C(F)(F)F)c2)cnc2cccnc12 [CBK081290] | 87.1 |
| CCCCc1ccc(-c2cnc3nc(O)ccc3c2)cc1 [CBK081296] | 69.9 |
| O=S(=O)(c1ccc(I)cc1)n1ccc2c(N3CCNCC3)cncc21 [CBK081326C] | 84.9 |
| C(=C\c1ccc(-c2nnc(CSCCOc3ccccc3)o2)cc1)/CN1CCCC1 [CBK081376] | 98.5 |
| COc1ccc(C(NC(=O)C2CCN(Cc3ccc4c(c3)OCO4)CC2)c2ccccc2C)cn1 (centres unmarked) [CBK081453T] | 121 |
| COc1ccc(C(NC(=O)N2CCN(C(=O)NCc3ccccc3Cl)CC2)c2ccccc2C)cn1 (centres unmarked) [CBK081471] | 88.7 |
| CCCCC1CCC(C(=O)Oc2ccccc2OCCO)CC1 (centres unmarked) [CBK081498] | 90.6 |
| CCC1CCCCN1C(=O)c1cccc(C)c1C (centres unmarked) [CBK081501] | 96.5 |
| CCC1CCCCN1C(=O)c1cccc(OC)c1 (centres unmarked) [CBK081504] | 98 |
| CC(C)Nc1cc(Cl)ncn1 [CBK081511] | 108 |

| Compound | viability at 28.5 h, 10 µM [%] |
| --- | --- |
| CCN(CC)C(=O)CCCc1[nH]nc(O)c1Cc1c(Cl)cccc1Cl [CBK081524] | 89 |
| CCC1CCCCN1C(=O)c1ccc(C)c(OC)c1 (centres unmarked) [CBK081557] | 103 |
| COc1ccc([C@@]23CC[C@@H](NC(=O)c4ccc(C(F)(F)F)c(F)c4)C[C@@H]2CN(C)C3)cc1OC [CBK082742C] | 107 |
| COc1ccc([C@]23CC[C@H](NC(=O)c4ccc(C(F)(F)F)c(F)c4)C[C@H]2CN(C)C3)cc1OC [CBK082743T] | 110 |
| CCC1CCCCN1C(=O)c1ccc(C)c(Cl)c1 (centres unmarked) [CBK082756] | 91.7 |
| COc1ccc2[nH]c3c(c2c1)CCN(C(=O)CNCC(=O)O)C31CCN(CCOc2ccccc2)C1 (centres unmarked) [CBK082782T] | 114 |
| O=[N+]([O-])c1ccc(CN2CCN(c3nccnc3OCC3COc4ccccc4O3)CC2)cc1 (centres unmarked) [CBK082791T] | 107 |
| c1ccc(CCN2CCN(c3nccnc3OCC3COc4ccccc4O3)CC2)cc1 (centres unmarked) [CBK082794T] | 99.4 |
| CSCCN1CCN(c2nccnc2OCC2COc3ccccc3O2)CC1 (centres unmarked) [CBK082806T] | 85.2 |
| COc1ccc2[nH]c3c(c2c1)CCN(CCc1ccc(F)cc1)C3 [CBK082819T] | 92.3 |
| Clc1ccc(CN2CCN(c3nccnc3OC3CCCCC3)CC2)cc1 [CBK082826T] | 101 |
| COc1ccc(CN2CCN(c3nccnc3OC3CCCCC3)CC2)cc1 [CBK082830T] | 115 |
| c1cnc(N2CCN(Cc3ccc4c(c3)OCO4)CC2)c(OC2CCCCC2)n1 [CBK082833T] | 95.6 |
| CSCCN1CCN(c2nccnc2OC2CCCCC2)CC1 [CBK082843T] | 108 |
| c1ccc2c(CCN3CCN(c4nccnc4OC4CCCCC4)CC3)c[nH]c2c1 [CBK082847T] | 100 |
| FC(F)(F)c1ccc(CN2CCC(Oc3nccnc3OC3CCCCC3)CC2)cc1 [CBK082859T] | 92.1 |
| O=[N+]([O-])c1ccc(CN2CCC(Oc3nccnc3OC3CCCCC3)CC2)cc1 [CBK082861T] | 90.4 |
| CCN(CC)C(=O)CN1CCC(Oc2nccnc2OC2CCCCC2)CC1 [CBK082866T] | 87 |
| c1ccc2c(CCN3CCC(Oc4nccnc4OC4CCCCC4)CC3)c[nH]c2c1 [CBK082877T] | 86.2 |
| c1cnc(OC2CCN(CC3CCCCC3)CC2)c(OC2CCCCC2)n1 [CBK082879T] | 101 |
| c1ccc(CN2CCN(c3nccnc3OCCN3CCOCC3)CC2)cc1 [CBK082885T] | 104 |
| Fc1ccccc1CN1CCN(c2nccnc2OCCN2CCOCC2)CC1 [CBK082886T] | 102 |
| O=[N+]([O-])c1ccc(CN2CCN(c3nccnc3OCCN3CCOCC3)CC2)cc1 [CBK082892T] | 99.8 |

| Compound | viability at 28.5 h, 10 µM [%] |
| --- | --- |
| c1cnc(N2CCN(Cc3ccc4c(c3)OCO4)CC2)c(OCCN2CCOCC2)n1 [CBK082894T] | 87.8 |
| CCN(CC)c1ccc(C(=O)CN2CCN(c3nccnc3OCCN3CCOCC3)CC2)cc1 [CBK082898T] | 97.4 |
| c1cnc(N2CCN(CC3CC3)CC2)c(OCCN2CCOCC2)n1 [CBK082909] | 87.2 |
| c1cncc(OCCN2CCN(c3nccnc3OCCN3CCOCC3)CC2)c1 [CBK082914] | 107 |
| Clc1ccc(CN2CCC(Oc3nccnc3OCCN3CCOCC3)CC2)cc1 [CBK082918T] | 92.5 |
| O=[N+]([O-])c1ccc(CN2CCC(Oc3nccnc3OCCN3CCOCC3)CC2)cc1 [CBK082923T] | 91 |
| c1cnc(OC2CCN(Cc3ccc4c(c3)OCO4)CC2)c(OCCN2CCOCC2)n1 [CBK082925T] | 115 |
| CCN(CC)C(=O)CN1CCC(Oc2nccnc2OCCN2CCOCC2)CC1 [CBK082928] | 93.4 |
| CCOC(=O)CN1CCC(Oc2nccnc2OCCN2CCOCC2)CC1 [CBK082929] | 103 |
| CCN1CCC(Oc2nccnc2OCCN2CCOCC2)CC1 [CBK082931] | 94.6 |
| CSCCN1CCC(Oc2nccnc2OCCN2CCOCC2)CC1 [CBK082935] | 92.9 |
| c1ccc2c(CCN3CCC(Oc4nccnc4OCCN4CCOCC4)CC3)c[nH]c2c1 [CBK082939T] | 88.6 |
| c1ccc2cc(CCN3CCC(Oc4nccnc4OCCN4CCOCC4)CC3)ccc2c1 [CBK082942T] | 90.7 |
| c1ccc(CCN2CCC(Oc3nccnc3OCCN3CCOCC3)CC2)nc1 [CBK082944] | 96 |
| Cc1cc(COc2nccnc2OC2CCN(Cc3ccc(Cl)cc3)CC2)no1 [CBK082949T] | 85.7 |
| Cc1cc(COc2nccnc2OC2CCN(CC(=O)Nc3c(C)cccc3C)CC2)no1 [CBK082958T] | 103 |
| CCN1CCC(Oc2nccnc2OCc2cc(C)on2)CC1 [CBK082962T] | 94.7 |
| O=[N+]([O-])c1ccc(CN2CCC(Oc3nccnc3OCC3COc4ccccc4O3)CC2)cc1 (centres unmarked) [CBK082984T] | 99.1 |
| Fc1ccc(Oc2nccnc2N2CCN(Cc3cccnc3)CC2)cc1 [CBK083011] | 87.5 |
| Fc1ccc(Oc2nccnc2N2CCN(CCOc3cccnc3)CC2)cc1 [CBK083037T] | 98.7 |
| COc1ccc(Oc2nccnc2N2CCN(Cc3ccc(Cl)c(Cl)c3)CC2)cc1OC [CBK083038T] | 91.8 |
| CCN(CC)C(=O)CN1CCN(c2nccnc2Oc2ccc(OC)c(OC)c2)CC1 [CBK083051T] | 103 |
| CCOC(=O)CN1CCN(c2nccnc2Oc2ccc(OC)c(OC)c2)CC1 [CBK083052T] | 103 |

| Compound | viability at 28.5 h, 10 µM [%] |
| --- | --- |
| COc1ccc(Oc2nccnc2N2CCN(CCCC#N)CC2)cc1OC [CBK083056T] | 95.5 |
| COc1ccc(Oc2nccnc2N2CCN(CCOc3ccccc3)CC2)cc1OC [CBK083061T] | 86.3 |
| O=[N+]([O-])c1ccc(CN2CCN(c3nccnc3OCc3ccc(Cl)c(Cl)c3)CC2)cc1 [CBK083076T] | 101 |
| CCN(CC)C(=O)CN1CCN(c2nccnc2OCc2ccc(Cl)c(Cl)c2)CC1 [CBK083081T] | 101 |
| Clc1ccc(COc2nccnc2N2CCN(CCOc3ccccc3)CC2)cc1Cl [CBK083091T] | 95.2 |
| Clc1ccc(COc2nccnc2OC2CCN(Cc3ccc4c(c3)OCO4)CC2)cc1Cl [CBK083109T] | 86.6 |
| CCOC(=O)CN1CCC(Oc2nccnc2OCc2ccc(Cl)c(Cl)c2)CC1 [CBK083113T] | 96.7 |
| Clc1ccc(COc2nccnc2OC2CCN(CCOc3ccccc3)CC2)cc1Cl [CBK083121T] | 95.9 |
| c1ccc(CN2CCN(c3nccnc3OCc3cccnc3)CC2)cc1 [CBK083129T] | 91.3 |
| O=[N+]([O-])c1ccc(CN2CCN(c3nccnc3OCc3cccnc3)CC2)cc1 [CBK083135T] | 106 |
| CCN1CCN(c2nccnc2OCc2cccnc2)CC1 [CBK083142] | 113 |
| CSCCN1CCN(c2nccnc2OCc2cccnc2)CC1 [CBK083146] | 91 |
| FC(F)(F)c1ccc(CN2CCC(Oc3nccnc3OCc3cccnc3)CC2)cc1 [CBK083160T] | 91.6 |
| O=[N+]([O-])c1ccc(CN2CCC(Oc3nccnc3OCc3cccnc3)CC2)cc1 [CBK083162T] | 95.8 |
| NC(=O)CN1CCC(Oc2nccnc2OCc2cccnc2)CC1 [CBK083165] | 107 |
| CSCCN1CCC(Oc2nccnc2OCc2cccnc2)CC1 [CBK083173] | 90.3 |
| c1ccc(CCN2CCC(Oc3nccnc3OCc3cccnc3)CC2)nc1 [CBK083180] | 103 |
| O=C(Nc1cccnc1)C1CCN(C(=O)OCc2ccccc2)CC1 [CBK083187] | 90.6 |
| CCC1CCCCN1C(=O)c1cccc(C(=O)OC)c1 (centres unmarked) [CBK083195] | 109 |
| CCC1CCCCN1C(=O)c1ccccc1OC (centres unmarked) [CBK083205] | 99.4 |
